Measured values as given in patent publication US7476691B2, “Sulfamate benzothiophene derivatives as steroid sulfatase inhibitors” (Laboratoire Theramex, priority 2003, dated 2009).

Columns and labels:
[1] = test system: ovariectomized Wistar female rats; test: Antiuterotrophic/antisulfatase activity: inhibition of E1S stimulated uterus weight; format: in vivo, rat
Procedure: A short model, derived from Purohit's method, was developed for the evaluation in vivo of nonestrogenic steroid sulfatase inhibitors.
Wistar female rats were ovariectomized and left to rest for 4 weeks. Prior to treatment, the absence of cyclicity was checked by vaginal smears.
Animals were supplemented with estrone sulfate (E1S) at 50 μg/kg/day s.c., alone or combined with oral administration of potential sulfatase inhibitors, at 1 mg/kg/day for 4 days. The uteri were removed, freed of adjacent tissue and wet weighed.
The results are expressed as % of inhibition of the E1S induced stimulation.
The activity of Ex 55 on E1S stimulated uterus weight was evaluated in relation to the standard inhibitor 6,6,7 COUMATE from 0.03 mg/kg/day to 1 mg/kg/day p.o.
(§1) In this study, a last administration was performed 24 hours before the necropsy for E1S and E2 serum levels assays. The uteri were removed, freed of adjacent tissue, wet weighed and immediately deep frozen until the determination of sulfatase activity.

[2] = Serum estrogen levels (E1S and E2) in treated rats; format: in vivo, rat; details: 24 h after last administration
Procedure: as §1
E1S and E2 levels were determined according to the supplier's standard method (DSL, Webster, Tex., USA).

MCF-7 cells = test: Hormono-dependent induced MCF-7 xenografts: volume and weight; format: in vivo, mice; details: oral 0.1 mg/kg/day for 6 weeks
Procedure: (§2) MCF-7 cells, derived from human breast adenocarcinoma, were injected subcutaneously in ovariectomized athymic nude mice supplemented with estrone sulfate (pellets 0.5 mg/90 day release). Xenograft volumes were determined once weekly. When tumor volumes reached a significant increase, 6,6,7 COUMATE and Ex 55 were orally administered at 0.1 mg/kg/day for 6 weeks.
(§3) Xenografts were measured, removed, weighed, and deep frozen until the determination of steroid sulfatase activity.

steroid sulfatase = target: T1, steroid sulfatase (Homo sapiens, UniProt P08842); test: Xenograft steroid sulfatase activity; format: in vivo, mouse; details: oral 0.1 mg/kg/day for 6 weeks
T1 construct: from tissue; host or cells: MCF-7 xenograft tumour removed from athymic nude mice
T1 sequence (P08842 22-583): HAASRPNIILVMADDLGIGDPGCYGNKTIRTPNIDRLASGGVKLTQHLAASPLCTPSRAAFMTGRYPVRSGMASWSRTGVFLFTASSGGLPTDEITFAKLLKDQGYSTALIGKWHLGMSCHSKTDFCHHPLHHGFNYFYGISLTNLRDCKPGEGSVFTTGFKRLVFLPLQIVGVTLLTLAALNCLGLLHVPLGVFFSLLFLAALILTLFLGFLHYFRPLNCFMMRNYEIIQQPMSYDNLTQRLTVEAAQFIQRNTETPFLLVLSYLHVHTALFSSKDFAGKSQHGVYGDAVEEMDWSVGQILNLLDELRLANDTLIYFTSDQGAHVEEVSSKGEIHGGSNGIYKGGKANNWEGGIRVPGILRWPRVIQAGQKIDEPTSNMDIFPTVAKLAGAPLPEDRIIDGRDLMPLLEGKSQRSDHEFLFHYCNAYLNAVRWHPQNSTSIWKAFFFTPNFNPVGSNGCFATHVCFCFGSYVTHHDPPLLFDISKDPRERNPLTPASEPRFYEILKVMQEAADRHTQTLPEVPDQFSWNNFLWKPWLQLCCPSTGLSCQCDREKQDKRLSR
Procedure: as §2, §3

prepubescent female rats = test: Residual estrogenic activity in vivo (uterotrophic assay)
Procedure: These compounds were checked for residual estrogenic activity in vivo in the classical uterotrophic assay after 3-day administration by oral route in prepubescent female rats.
Prepubescent female rats were orally treated at 1 mg/rat/day for 3 days. On the day following the last treatment, uteri were removed and wet weight were recorded.
The results are expressed as % of stimulation of uterus weight in comparison with controls.

estrone sulfatase [3] = target: T2, estrone sulfatase (Homo sapiens, UniProt P08842); test: Estrone sulfatase whole-cell assay on JEG-3 cells; format: cell-based; set-up: The JEG-3 cell line, derived from a human placental choriocarcinoma, is spontaneously very rich in human estrone sulfatase; endogenous in cells; host or cells: JEG-3 (human placental choriocarcinoma), intact cells; details: 4 h treatment, 3H-E1S, read-out: IC50 (nM) ± S.E.M., inhibition of estrone sulfatase
T2 sequence (P08842 22-583): T1 sequence (P08842 22-583)
Procedure: (§4) Two in vitro models on whole cells were used. […] Moreover, these cells were used in the in vivo model of hormono-dependent induced xenografts.
(§5) Estrone Sulfatase Assay on Cells
(§6) Whole-cell assays were performed as originally described by Duncan et al. (Cancer Res., 1993, 53: 298-303) on intact MCF-7 cell monolayers. Assays were carried out with cells in logarithmic growth phase, on 96-well (JEG-3) or 24-well (MCF-7) microplates. Twenty-four hours (JEG-3) or 72 h (MCF-7) before studies, cells were seeded in decomplemented fetal calf serum (dFCS) supplemented medium. Then, the seeding medium was removed and the cells were rinsed with PBS to eliminate any trace of dFCS. Then, ^3H-E1S was added, followed by test compounds ranging from 10^−12 M to 10^−5 M. After 4 h (JEG-3) or 20 h (MCF-7) of treatment, the medium was transferred into either 96-deep-well microplates (JEG-3) or plastic tubes (MCF-7) and centrifuged at 200×g for 10 min to pellet cells before toluene extraction. A fraction of medium was used for toluene extraction in order to separate conjugated substrate and non-conjugated products. The radioactivity in the toluene phase was measured by liquid scintillation counting (LSC). Finally, estrone sulfatase activity was expressed in pmoles of ^3H-E1+^3H-E2 formed per 4 or 20 hours and per μg DNA and estrone sulfatase inhibition in percentage of control activity without inhibitor.

estrone sulfatase [4] = target: T2, estrone sulfatase; test: Estrone sulfatase whole-cell assay on MCF-7 cells; format: cell-based; set-up: Whole-cell assays were performed as originally described by Duncan et al. (Cancer Res., 1993, 53: 298-303) on intact MCF-7 cell monolayers; endogenous in cells; host or cells: MCF-7 (human breast adenocarcinoma), intact monolayers; details: 20 h treatment, 3H-E1S, read-out: IC50 (nM) ± S.E.M., inhibition of estrone sulfatase
Procedure: as §4, §5, §6

[5] = MCF-7 xenografts, nude mice with E1S pellet

- Xenograft steroid sulfatase activity (steroid sulfatase; MCF-7 xenografts): 263 ± 17 pmol/h/mg protein
- inhibition at 0.1 mg/kg/day (steroid sulfatase; read-out: inhibition of intratumoral steroid sulfatase activity): 84%
- % stimulation of uterus weight in comparison with controls (prepubescent female rats; prepubescent female rats, oral, 1 mg/rat/day for 3 days): 3%
- estrogenicity (in words) (prepubescent female rats; summary of the uterotrophic assay): lack of estrogenicity
- IC50 (estrone sulfatase [3]): 7.7 ± 0.4 nM
- IC50 (estrone sulfatase [4]): 0.05 ± 0.01 nM
SMILES: NS(=O)(=O)Oc1ccc2c(c1)S(=O)(=O)C(CC1CCCCCC1)=C2 [Ex 55, Sulfamic acid, 2-cycloheptylmethyl-benzothiophene-6-yl-1,1-dioxide ester]
- Inhibition of E1S stimulated uterus weight ([1]; 0.03 mg/kg/day p.o.): 0%
- Inhibition of E1S stimulated uterus weight ([1]; 0.1 mg/kg/day p.o.): 0%
- Inhibition of E1S stimulated uterus weight ([1]; 0.3 mg/kg/day p.o.): 36%
- Inhibition of E1S stimulated uterus weight ([1]; 1 mg/kg/day p.o.): 72%
- % inhibition of the E1S induced stimulation (uterus weight) ([1]; ovariectomized rats, E1S 50 μg/kg/day s.c., compound oral 1 mg/kg/day for 4 days): 81%
- inhibition of E1S stimulated uterus weight (in words) ([1]; summary of the antiuterotrophic assay): significant inhibition
- E1S levels (serum) ([2]; 0.03 mg/kg/day p.o.): 17 ± 2.5 ng/mL
- E2 levels (serum) ([2]; 0.03 mg/kg/day p.o.): 31 ± 2.8 pg/mL
- E1S levels (serum) ([2]; 0.1 mg/kg/day p.o.): 21 ± 2.4 ng/mL
- E2 levels (serum) ([2]; 0.1 mg/kg/day p.o.): 28 ± 1.3 pg/mL
- E1S levels (serum) ([2]; 0.3 mg/kg/day p.o.): 69 ± 5.9 ng/mL
- E2 levels (serum) ([2]; 0.3 mg/kg/day p.o.): 22 ± 1.2 pg/mL
- E1S levels (serum) ([2]; 1 mg/kg/day p.o.): 83 ± 2.5 ng/mL
- E2 levels (serum) ([2]; 1 mg/kg/day p.o.): 15 ± 0.9 pg/mL
- Xenograft volume after 6 week treatment (MCF-7 cells; [5]): 1488 ± 233 mm^3
- Xenograft weight after 6 week treatment (MCF-7 cells; [5]): 877 ± 185 mg
- inhibition of the E1S induced stimulation (xenograft volume) (MCF-7 cells): 18%
- inhibition of xenograft weight (MCF-7 cells): 35%
